The values that follow come from patent US9867377B2, “Composition comprising a biological control agent and an insecticide” (Bayer CropScience AG, priority 2012, dated 2018).

Structures are written as SMILES.

What all share (format): in vivo
Test [1] concerns two spotted spidermite (Tetranychus urticae). Put plainly: Tetranychus urticae - spray test, OP-resistant. Particulars: mortality, infested French beans sprayed. As to the method:
(§1) Formula for the efficacy of the combination of two compounds • The expected efficacy of a given combination of two compounds is calculated as follows (see Colby, S. R., “Calculating Synergistic and antagonistic Responses of Herbicide Combinations”, Weeds 15, pp. 20-22, 1967): • If • X is the efficacy expressed in % mortality of the untreated control for test compound A at a concentration of m ppm respectively m g/ha, • Y is the efficacy expressed in % mortality of the untreated control for test compound B at a concentration of n ppm respectively n g/ha, • E is the efficacy expressed in % mortality of the untreated control using the mixture of A and B at m and n ppm respectively m and n g/ha, • then is
(§2) [formula] • If the observed insecticidal efficacy of the combination is higher than the one calculated as, “E”, then the combination of the two compounds is more than additive, i.e., there is a synergistic effect.
Tetranychus urticae—Spray Test, OP-Resistant
(§3) Solvent: 78.0 parts by weight acetone • 1.5 parts by weight dimethylformamide
(§4) Emulsifier: alkylaryl polyglycol ether
(§5) To produce a suitable preparation of active compound, 1 part by weight of active compound is mixed with the stated amount of solvents and is diluted with water, containing an emulsifier concentration of 1000 ppm, to the desired concentration. To produce a suitable preparation of a spore suspension the spores are diluted with emulsifier containing water to the desired concentration. Further test concentrations are prepared by dilution with emulsifier containing water.
French beans (Phaseolus vulgaris) which are heavily infested with all stages of the two spotted spidermite (Tetranychus urticae), are sprayed with a preparation of the active ingredient of the desired concentration.
After the specified period of time, mortality in % is determined. 100% means all spider mites have been killed and 0% means none of the spider mites have been killed. The mortality values determined thus are recalculated using the Colby-formula (see sheet 1).

Test [2] concerns mustard beetle larvae (Phaedon cochleariae). Put plainly: Phaedon cochleariae - spray test. Particulars: mortality, Chinese cabbage leaf disks sprayed. As to the method: as §1, §2
Phaedon cochleariae—Spray Test
Solvent: 78.0 parts by weight of acetone • • 1.5 parts by weight of dimethylformamide
Emulsifier: alkylaryl polyglycol ether […]
After the specified period of time, mortality in % is determined. […] The mortality values determined thus are recalculated using the Colby-formula (see sheet 1).

For test [3], the system named is green peach aphid (Myzus persicae). Put plainly: Myzus persicae - spray test. Particulars: mortality, infested Chinese cabbage leaf disks sprayed; for Efficacy in % after 6 d: 0.4 g ai/ha. As to the method:
as §1, §2
Myzus persicae—Spray Test
as §3, §4, §5
Chinese cabbage (Brassica pekinensis) leaf-disks infected with all instars of the green peach aphid (Myzus persicae) are sprayed with a preparation of the active ingredient of the desired concentration.
After the specified period of time, mortality in % is determined. 100% means all aphids have been killed; 0% means none of the aphids have been killed. The mortality values determined thus are recalculated using the Colby-formula (see sheet 1).

In the case of `Cc1cc(F)c(-n2nc(C(F)(F)F)nc2N)cc1[S+]([O-])CC(F)(F)F` (stereo not shown) [AMSI 378, 1-{2-fluoro-4-methyl-5-[(2,2,2-trifluorethyl)sulfinyl]phenyl}-3-(trifluoromethyl)-1H-1,2,4-triazol-5-amine], in test [1] (4 g ai/ha), the “Efficacy in % after 2 d” value amounted to 30% and the “Efficacy in % after 6 d” value was 0%.

`CNC(=O)c1cc(C#N)cc(C)c1NC(=O)c1cc(Cn2nnc(C(F)(F)F)n2)nn1-c1ncccc1Cl` [BCS-CL73507]: the “Efficacy in % after 6 d” value in test [2] (0.08 g ai/ha) and in test [3] was 0% in each case.

Turning to `O=C(NCCc1ncc(C(F)(F)F)cc1Cl)c1ccccc1C(F)(F)F` [Fluopyram], in test [2] (100 g ai/ha), the “Efficacy in % after 6 d” value was 0%. The “Efficacy in % after 1 d” value in test [3] (1000 g ai/ha) was determined as 0%.

Turning to `O=C1C=C(N(Cc2ccc(Cl)nc2)CC(F)F)CO1` [Flupyradifurone], the “Efficacy in % after 6 d” value in test [1] (250 g ai/ha) is 0%. Moreover, the “Efficacy in % after 1 d” value in test [3] (20 g ai/ha) is 0%.

As for `Cc1cc(C)c(C2=C(OC(=O)CC(C)(C)C)C3(CCCC3)OC2=O)c(C)c1` [Spiromesifen], in test [1] (0.5 g ai/ha), the “Efficacy in % after 6 d” value is reported as 0%.

For `CCOC(=O)OC1=C(c2cc(C)ccc2C)C(=O)N[C@]12CC[C@@H](OC)CC2` [Spirotetramat], the “Efficacy in % after 6 d” value in test [3] was determined as 0%.
